This is an account of results in patent US6541468B1, “Indolocarbazole derivatives useful for the treatment of neurodegenerative diseases and cancer” (Bayer Corporation, priority 1998, dated 2003).

In the case of `O=C1NC(=O)c2c1c1c3ccccc3n3c1c1c2c2ccccc2n1C1CC3CC1=O` (centres unmarked) [Example 3, 9,12-Methano-1H-diindolo[1,2,3-fg:3′,2′,1′-kl]pyrrolo[3,4-I][1,6]benzodiazocine-1,3,10 (2H,9H)-trone, 11,12-dihydro], the melting point is over 230 °C.

For the compound `O=C1NC(=O)c2c1c1c3ccccc3n3c1c1c2c2ccccc2n1C1CC3[C@@H](O)[C@H]1O` [Example 1, 9,12-Methano-1H-diindolo[1,2,3-fg:3′,2′,1′-kl]pyrrolo[3,4-][1,6]benzodiazocine-1,3 (2H)-dione,9,10,11,12-tetrahydro-10,11-dihydroxy-(9α,10α,11α,12α)], the melting point is over 200 °C.
